The values below come from patent publication US12630536B2, “Cyanotriazine derivative, preparation method therefor, and application thereof” (Chengdu Fanxi Biopharma Co., LTD., priority 2020, dated 2026).

Experiment [1] concerns the target T1, THR-α ligand-binding domain (H6-THR-α) (Homo sapiens, UniProt P10827).
T1 construct: made in house; host or cells: Escherichia coli BL21 (DE3), vector pET28a
T1 sequence (P10827 148-410 isoform P10827-2 limits assumed): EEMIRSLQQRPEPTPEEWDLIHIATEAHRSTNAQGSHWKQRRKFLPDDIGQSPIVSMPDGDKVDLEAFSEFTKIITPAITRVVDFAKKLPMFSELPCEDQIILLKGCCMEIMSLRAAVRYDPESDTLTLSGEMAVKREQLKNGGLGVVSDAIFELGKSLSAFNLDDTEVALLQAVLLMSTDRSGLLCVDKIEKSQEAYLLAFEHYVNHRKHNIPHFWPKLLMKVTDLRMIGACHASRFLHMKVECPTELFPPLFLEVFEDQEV
T1 sequence (P19793 225-462 partner limits assumed): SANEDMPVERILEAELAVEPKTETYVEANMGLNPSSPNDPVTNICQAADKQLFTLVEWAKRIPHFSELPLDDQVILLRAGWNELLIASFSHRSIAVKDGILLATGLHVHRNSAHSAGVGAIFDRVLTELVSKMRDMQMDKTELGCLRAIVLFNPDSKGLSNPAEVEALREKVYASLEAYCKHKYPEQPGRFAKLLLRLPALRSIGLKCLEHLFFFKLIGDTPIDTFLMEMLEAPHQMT
T1 sequence (Q15596 679-703 partner limits assumed): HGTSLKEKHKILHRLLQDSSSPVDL
The experiment in a line: Co-activated peptide recruitment test of THR-α/RXR/GRIP1 (TR_LBD agonist detection, HTRF). Type of experiment: biochemical. As to the method:
(§1) A ligand binding domain of THR-β (amino acids 148-410) (H6-THR-β) and a ligand binding domain of THR-α (amino acids 202-461) (H6-TRα) were cloned into E. coli expression vector pET28a (Novagen, Milwaukee, Wis.) containing N-terminal six His sequences. The resulting recombinant six-His-tagged protein was produced in E. coli BL21(DE3) cells. The cells were grown in Terrific Broth (self-used self-prepared Bacto tryptone (3.3%, w/v), Difico yeast extract (2.0%, w/v) and NaCl (0.5%, w/v) medium), incubated at 25° C. for 24 hours using a shake flask in 0.2 mM IPTG, harvested or dissolved with 5 volumes of buffer A (0.05 M Tris, 0.3 M NaCl, 1% W/V betaine, 0.01 M imidazole, 0.02 M b-mercaptoethanol, pH 8.0). Lysozyme (1.0 mg/ml, Sigma) and CompleteProtease Inhibitor Cocktail (Roche Diagnostics Gmbh) were added to the slurry and the solution was sonicated for one minute and 5 times at 4° C. The suspension was centrifuged at 127,300 RCF for 2 hours in a Ti45 Beckmann rotor and the supernatant was loaded onto an NI NTAAgarose (Quigen 30210) column. After washing with the buffer A, […] or H6-THR-α was eluted with the buffer A containing 0.25 M imidazole.
(§2) 30 microliters of H6-THR-β (50 nM) or H6-THR-α in 50 mM Hepes, pH 7.0, 1 mM DTT, 0.05% NP40 and 0.2 mg/ml BSA (binding buffer) were mixed with an equal volume of EE-RxRα (50 nM) in the binding buffer. […] Aliquot ([…]) was transferred to a 384-well black microtiter plate. HTRF signal was read on a Victor5 reader (PerkinElmer Life and Analytical Sciences). EC50 was calculated.
(§3) Gene clones expressing a ligand-binding domain (amino acids 148-410) of THR-β (H6-THR-β) and a ligand-binding domain (amino acids 202-461) of THR-α (H6-THR-α) were inserted into an Escherichia coli expression vector pET28a, and the expression vector contained one N-terminal 6-His sequence. The expression vector was introduced into an Escherichia coli BL21 (DE3) strain to produce a recombinant protein with a His tag. […] After finishing culturing, a bacterium in culture was collected, and the collected bacterium was resuspended with a lysis solution (0.05 M Tris, 0.3 M NaCl, 1% W/V betaine, 0.01 M imidazole, 0.02 M β-mercaptoethanol, and pH 8.0) with a volume 5 times that of the bacterium, and lysozyme and protease inhibitors were added at the same time, the treated bacteria was subjected to ultrasonic lysis (5 times per minute) in ice bath (4° C.). A lysed suspension was centrifuged at 127300 RCF for 2 hours, a supernatant was loaded on a NI_NTA agarose (Quigen 30210) column, and after washing with a buffer A, an H6-TRβ or H6-TRα protein was eluted with the buffer A containing 0.25 M imidazole.
(§4) A human retinol X receptor (amino acid 225-462) (RxRα) was subjected to engineering modification, so that an N-terminal of the human retinol X receptor had His6 and EE(EFMPME) tags, and then the human retinol X receptor was cloned into a pACYC vector, and produced a His6 EEtagged protein in Escherichia coli. IPTG with a final concentration of 0.1 mM was added into the culture medium for induction, and cultured in a shaking flask at 18° C. for 18 hours. After finishing culturing, a bacterium in culture was collected, and the collected bacterium was re-suspended with a lysis solution (0.05 M Tris, 0.3 M NaCl, 1% W/V betaine, 0.01 M imidazole, 0.02 β-mercaptoethanol, and pH 8.0) with a volume 5 times that of the bacterium, lysozyme and protease inhibitors were added at the same time, and stirred at 4° C. for 30 minutes. Then, a suspension was subjected to an ultrasonic treatment at 4° C. for 30 seconds for 5 times. The suspension was collected, and centrifuged at 12000 RCF for 20 minutes. A supernatant was collected, and the supernatant was filtered with a membrane with a pore size of 0.45 μm, and then added with 0.5% NP-40.
A general note: TR-FRET usually uses a lanthanide donor and a delayed reading to cut background.

Experiment [2] concerns the target T2, THR-β ligand-binding domain (H6-THR-β) (Homo sapiens, UniProt P10828).
T2 construct: made in house; host or cells: Escherichia coli BL21 (DE3), vector pET28a
T2 sequence (P10828 217-461 limits assumed): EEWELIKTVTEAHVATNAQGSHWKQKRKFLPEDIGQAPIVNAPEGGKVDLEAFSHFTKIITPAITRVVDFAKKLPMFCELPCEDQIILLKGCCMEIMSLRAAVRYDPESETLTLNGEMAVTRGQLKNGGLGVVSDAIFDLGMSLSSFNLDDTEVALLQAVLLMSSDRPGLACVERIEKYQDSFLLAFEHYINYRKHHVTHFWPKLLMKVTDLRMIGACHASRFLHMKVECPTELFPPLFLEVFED
T2 sequence (P19793 225-462 partner limits assumed): T1 sequence (P19793 225-462 partner limits assumed)
T2 sequence (Q15596 679-703 partner limits assumed): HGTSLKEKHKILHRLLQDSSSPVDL
Briefly: Co-activated peptide recruitment test of THR-β/RXR/GRIP1 (TR_LBD agonist detection, HTRF). Type of experiment: biochemical. The method, then: as §1, §2, §3, §4

Experiment [3] deals with TR alpha-UAS-bla HEK 293T Cells. The experiment in a line: TR cell-based agonist detection, β-lactamase reporter (LiveBLAzer FRET B/G), TR alpha. As to conditions: Homo sapiens; for Emax: HEK-293T, 24 h, TR_cell-based agonist, TR_α, read-out: Maximum activity ratio; for EC50: Detection of TR_cell-based agonist, HEK 293T-TR alpha, 24 hours, read-out: TR_α_EC50. The method, then: (§5) A method for testing a THR-α/β activation activity of a compound by an in-vitro cell level was as follows.
(§6) Compounds were transferred to a 384-well plate by an ECHO liquid workstation, and each compound was diluted by 3 times with 10 gradient concentrations, which was in triplicate. 1.5×10^4 DMEM-cultured cells (TR beta-UAS-bla HEK 293T Cells) or 1.0×10^4 TR alpha-UAS-bla HEK 293T Cells were placed in the 384-well plate. HEK 293T-TR beta was incubated in an incubator for 16 hours, and HEK 293T-TR alpha was incubated in an incubator for 24 hours. A LiveBLAzer™-FRET B/G (CCF4-AM) substrate was added into the cell plate to detect expression of β-lactamase in cells, and under excitation of 409 nm, a product produced fluorescence with a wavelength of 447 nm. When the β-lactamase was not expressed, under excitation of 409 nm, fluorescence with a wavelength of 520 nm was directly produced through FRET. Combination between the compound and the protein was determined by detecting a ratio of the two kinds of fluorescence (blue/green, 460 nm/530 nm), thus calculating EC50 of the compound. […] Calculation of a factor Z (greater than 0.5) would be used for monitoring a stability of each experiment.

Experiment [4] deals with TR beta-UAS-bla HEK 293T Cells. Briefly: TR cell-based agonist detection, β-lactamase reporter (LiveBLAzer FRET B/G), TR beta. The settings on record: for Emax / EC50: Homo sapiens; for Emax: HEK-293T, 16 h, TR_β, read-out: Maximum activity ratio (A460/A530); for EC50: Detection of TR_cell-based agonist, HEK 293T-TR beta, 16 hours, read-out: TR_β_EC50. As to the method:
as §5, §6

Experiment [5] relates to golden hamsters fed with high-fat feedstuffs (hyperlipidemia model). Briefly: In-vivo pharmacodynamic test, high-fat feed hyperlipidemia model. The settings on record: oral once per day, 4 weeks. The method, then:
Administration mode: oral administration was carried out once per day with a time interval of 24 hours for 4 consecutive weeks. During the experiment, the animals were weighed twice per week, and a remaining amount and an adding amount of the feedstuffs were recorded before each blood sampling detection for calculating a food intake of each group of animals during administration.
The food utilization rate represents a weight gain in gram of an animal taking per 100 g of feedstuffs, so that food utilization rate=weight gain (g)/food intake (100 g)×100%.

For `Cn1c(CCc2ccccc2)nc2cc(Oc3c(Cl)cc(-n4nc(C#N)c(=O)[nH]c4=O)cc3Cl)ccc21` [Compound 9, 2-(3,5-dichloro-4-((1-methyl-2-phenethyl-1H-benzo[d]imidazol-5-yl)oxy)phenyl)-3,5-dioxo-2,3,4,5-tetrahydro-1,2,4-triazine-6-carbonitrile], the EC50 in experiment [1] (Detection of TR_LBD agonist, read-out: TR_α_EC50) was more than 5 µM; in experiment [2] (Detection of TR_LBD agonist, read-out: TR_beta_EC50), 0.0148 µM; in experiment [3], more than 20 µM; in experiment [4], more than 20 µM. Further, the “Maximum activity ratio (A520/A495)” value in experiment [1] (TR_LBD agonist, TR_α) worked out at 1.39; in experiment [2] (TR_LBD agonist, TR_β), 1.84. Besides, in experiment [2] (TR_LBD agonist, TR_β, maximum relative to T3), the “Measurement of cpd/T3 (maximum ratio)” value is reported as 33.6%. In addition, the α/β in experiment [2] (TR_LBD agonist, ratio TR_α EC50 / TR_β EC50) is reported as more than 337.84. Further, the results for the Emax in experiment [3] and in experiment [4] (TR_cell-based agonist) were 31% and 20.4%, respectively.
Turning to `CC(C)c1cc(Oc2c(Cl)cc(-n3nc(C#N)c(=O)[nH]c3=O)cc2Cl)n[nH]c1=O` [MGL3196, reference compound], the Emax was determined as 134% in experiment [3] and 37.7% in experiment [4] (TR_cell-based agonist). For the same molecule, the EC50 in experiment [3] came out at 2.77 µM; in experiment [4], 1.05 µM. Also, in experiment [4] (TR_cell-based agonist, ratio TR_α EC50 / TR_β EC50), the α/β is given as 2.62. Also, the “food utilization rate (weight gain (g)/food intake (100 g)×100%)” value in experiment [5] was “increased to some extent”.
